Assay results: PubChem BioAssay (NCI)
Values joined by “and” are separate entries in the source; they are usually repeats but may differ in a detail not shown here. Equal entries are not always repeated.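 96-well plates; 48 h exposure; 5 concentrations. Endpoints by linear interpolation between flanking doses. Not reached: highest tested concentration assigned. GI50: concentration for 50% inhibition of growth. TGI: total growth inhibition.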

Legend:
Test in all cases: NCI tumour cell line growth inhibition, 48 h
[1] = test system: SN12C renal
[2] = test system: HCC-2998 colon
[3] = test system: SK-MEL-5 melanoma
[4] = test system: NCI-H226 lung
[5] = test system: PC-3 prostate
[6] = test system: OVCAR-5 ovarian
[7] = test system: A498 renal
[8] = test system: OVCAR-3 ovarian
[9] = test system: HCT-116 colon
[10] = test system: SF-295 CNS

Row | Compound | GI50 [1] | TGI [1] | GI50 [2] | TGI [2] | GI50 [3] | TGI [3] | GI50 [4] | TGI [4] | GI50 [5] | TGI [5] | GI50 [6] | TGI [6] | GI50 [7] | TGI [7] | GI50 [8] | TGI [8] | GI50 [9] | TGI [9] | GI50 [10] | TGI [10]
1 | CC(=O)Oc1ccc(C2(c3ccc(OC(C)=O)cc3)C(=O)Nc3ccccc32)cc1 | 0.202 µM and 0.283 µM | > 68.3 µM | 29.7 µM and 23.1 µM | > 100 µM | 24.6 µM and 36.1 µM | > 100 µM | > 100 µM | > 100 µM | 5.19 µM and 14.3 µM | > 100 µM | > 70.8 µM | > 100 µM | 24.6 µM and 26.8 µM | > 76.1 µM and 89.8 µM | 0.081 µM and 0.131 µM | > 35.8 µM and 26 µM | 34.1 µM and 25.8 µM | > 100 µM | 23.5 µM and 38.3 µM | > 100 µM
2 | CCOCNc1ccc(N2C(=O)/C(=C/c3ccc(N(CC)CC)cc3)N=C2c2ccccc2)cc1 | 16.6 µM | > 100 µM | > 100 µM | > 100 µM | 22.9 µM | > 100 µM | 8.24 µM | > 100 µM | 5.83 µM | > 100 µM | > 100 µM | > 100 µM | 35.4 µM | > 100 µM | 28.3 µM | > 100 µM | 2.4 µM | 53.4 µM | 9.8 µM | > 100 µM
3 | Fc1c[c-]c(-c2ccccn2)c(F)c1.[CH3-].[Pt+2].c1ccc(P(C[PH+](c2ccccc2)c2ccccc2)c2ccccc2)cc1 | 0.502 µM | 1.77 µM | 0.484 µM | 1.29 µM | 0.714 µM | 1.37 µM | 0.559 µM | 2.09 µM | 0.373 µM | 1.53 µM | 0.98 µM | 2.54 µM | 0.712 µM | 1.58 µM | 0.411 µM | 1.2 µM | 0.494 µM | 1.29 µM | 0.708 µM | 1.82 µM
